Source: ChEMBL document CHEMBL1201862, “PubChem BioAssay data set” (2004)
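Growth conditions: 96-well plates. Treatment: test compound, 48 hours, 5 concentrations. Analysis: linear interpolation between bracketing concentrations; unreached endpoints set to highest concentration. Abbreviation: GI50, concentration required for 50% inhibition of growth.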 Activity calls are given as the source filed them. No stated cut-off is given here; in the data, active = GI50 up to about 1.1 µM and inactive = higher.

Legend:
Assay in all cases: growth of human tumour cells (NCI), 48 h
[1] = system: 786-0
[2] = system: A498
[3] = system: A549
[4] = system: ACHN
[5] = system: BT-549
[6] = system: CAKI-1
[7] = system: CCRF-CEM
[8] = system: COLO 205
[9] = system: DU-145
[10] = system: EKVX
[11] = system: HCC 2998
[12] = system: HCT-116
[13] = system: HCT-15
[14] = system: HL-60
[15] = system: HOP-62
[16] = system: HOP-92
[17] = system: HT-29
[18] = system: Hs-578T
[19] = system: IGROV-1
[20] = system: K562
[21] = system: KM12
[22] = system: LOX IMVI
[23] = system: M14
[24] = system: MCF7
[25] = system: MDA-MB-231
[26] = system: MDA-MB-435
[27] = system: MDA-N
[28] = system: MOLT-4
[29] = system: Malme-3M
[30] = system: NCI-H226
[31] = system: NCI-H23
[32] = system: NCI-H460
[33] = system: NCI-H522
[34] = system: NCI/ADR-RES
[35] = system: OVCAR-3
[36] = system: OVCAR-4
[37] = system: OVCAR-5
[38] = system: OVCAR-8
[39] = system: PC-3
[40] = system: RPMI-8226
[41] = system: RXF 393
[42] = system: SF-268
[43] = system: SF-295
[44] = system: SF-539
[45] = system: SK-MEL-28
[46] = system: SK-MEL-2
[47] = system: SK-MEL-5
[48] = system: SK-OV-3
[49] = system: SN12C
[50] = system: SNB-19
[51] = system: SR
[52] = system: SW-620
[53] = system: T47D
[54] = system: TK-10
[55] = system: U-251
[56] = system: UACC-257
[57] = system: UACC-62
[58] = system: UO-31

SMILES: N#Cc1c(O)nc2[nH]nc(/N=N\c3c(O)ccc4ccccc34)c2c1-c1ccc(Cl)cc1
- GI50 [1]: 68.9 nM (active)
- GI50 [2]: 117 nM (active)
- GI50 [3]: 312 nM (active)
- GI50 [4]: 296 nM (active)
- GI50 [5]: 82.6 nM (active)
- GI50 [6]: 282 nM (active)
- GI50 [7]: < 37.1 nM (active)
- GI50 [8]: 433 nM (active)
- GI50 [9]: 170 nM (active)
- GI50 [10]: 219 nM (active)
- GI50 [11]: 359 nM (active)
- GI50 [12]: 114 nM (active)
- GI50 [13]: 19 nM
- GI50 [14]: 71.3 nM (active)
- GI50 [15]: 164 nM (active)
- GI50 [16]: 234 nM (active)
- GI50 [17]: 123 nM (active)
- GI50 [18]: 968 nM (active)
- GI50 [19]: 286 nM (active)
- GI50 [20]: 1630 nM (inactive)
- GI50 [21]: 403 nM (active)
- GI50 [22]: 57 nM (active)
- GI50 [23]: 188 nM (active)
- GI50 [24]: 147 nM (active)
- GI50 [25]: 230 nM (active)
- GI50 [26]: 789 nM (active)
- GI50 [27]: 637 nM (active)
- GI50 [28]: 171 nM (active)
- GI50 [29]: 143 nM (active)
- GI50 [30]: 400 nM (active)
- GI50 [31]: 470 nM (active)
- GI50 [32]: 79.2 nM (active)
- GI50 [33]: 248 nM (active)
- GI50 [34]: 97.5 nM (active)
- GI50 [35]: 66.7 nM (active)
- GI50 [36]: 241 nM (active)
- GI50 [37]: 834 nM (active)
- GI50 [38]: 233 nM (active)
- GI50 [39]: 303 nM (active)
- GI50 [40]: 1560 nM (inactive)
- GI50 [41]: 198 nM (active)
- GI50 [42]: 68.2 nM (active)
- GI50 [43]: 240 nM (active)
- GI50 [44]: 290 nM (active)
- GI50 [45]: 311 nM (active)
- GI50 [46]: 202 nM (active)
- GI50 [47]: 369 nM (active)
- GI50 [48]: 187 nM (active)
- GI50 [49]: 391 nM (active)
- GI50 [50]: 211 nM (active)
- GI50 [51]: 255 nM (active)
- GI50 [52]: 163 nM (active)
- GI50 [53]: 173 nM (active)
- GI50 [54]: 108 nM (active)
- GI50 [55]: 124 nM (active)
- GI50 [56]: 851 nM (active)
- GI50 [57]: 103 nM (active)
- GI50 [58]: 175 nM (active)
